In brackets after ≈: the same amount, converted by molar mass.
Assays:
[1] = Displacement of Biocillin FL from Streptococcus pneumoniae 3665 PBP1B
[2] = tested on: Streptococcus pneumoniae; experiment: Antimicrobial activity against penicillin-intermediate Streptococcus pneumoniae 3676 by CLSI method; type: functional
[3] = target: T1, Penicillin-binding protein 1A (Streptococcus pneumoniae serotype 4 (strain ATCC BAA-334 / TIGR4), UniProt Q04707); experiment: Displacement of Biocillin FL from Streptococcus pneumoniae 2527 PBP1A
T1 sequence (Q04707 whole entry): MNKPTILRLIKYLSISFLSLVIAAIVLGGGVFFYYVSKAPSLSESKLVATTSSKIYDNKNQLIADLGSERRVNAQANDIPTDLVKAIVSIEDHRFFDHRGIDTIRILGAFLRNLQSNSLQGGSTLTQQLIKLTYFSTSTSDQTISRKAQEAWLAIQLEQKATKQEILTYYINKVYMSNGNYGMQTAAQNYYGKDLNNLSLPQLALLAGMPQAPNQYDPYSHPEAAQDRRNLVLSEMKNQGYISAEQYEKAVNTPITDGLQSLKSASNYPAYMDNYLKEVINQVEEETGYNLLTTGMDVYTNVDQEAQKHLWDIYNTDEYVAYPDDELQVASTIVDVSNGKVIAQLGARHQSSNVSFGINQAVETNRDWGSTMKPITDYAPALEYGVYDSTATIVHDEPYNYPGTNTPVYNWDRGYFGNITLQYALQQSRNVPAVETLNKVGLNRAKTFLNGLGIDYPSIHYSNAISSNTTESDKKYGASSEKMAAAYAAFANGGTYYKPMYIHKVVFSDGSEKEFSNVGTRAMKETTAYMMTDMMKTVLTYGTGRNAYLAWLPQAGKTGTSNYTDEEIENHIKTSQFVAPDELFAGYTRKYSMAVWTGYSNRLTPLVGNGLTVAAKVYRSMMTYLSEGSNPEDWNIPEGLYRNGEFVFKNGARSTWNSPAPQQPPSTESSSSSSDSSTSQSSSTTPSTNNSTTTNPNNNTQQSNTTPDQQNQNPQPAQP

[4] = target: T2, Penicillin-binding protein 2x (Streptococcus pneumoniae serotype 4 (strain ATCC BAA-334 / TIGR4), UniProt P14677); experiment: Displacement of Biocillin FL from Streptococcus pneumoniae 3665 PBP2X
T2 sequence (P14677 whole entry): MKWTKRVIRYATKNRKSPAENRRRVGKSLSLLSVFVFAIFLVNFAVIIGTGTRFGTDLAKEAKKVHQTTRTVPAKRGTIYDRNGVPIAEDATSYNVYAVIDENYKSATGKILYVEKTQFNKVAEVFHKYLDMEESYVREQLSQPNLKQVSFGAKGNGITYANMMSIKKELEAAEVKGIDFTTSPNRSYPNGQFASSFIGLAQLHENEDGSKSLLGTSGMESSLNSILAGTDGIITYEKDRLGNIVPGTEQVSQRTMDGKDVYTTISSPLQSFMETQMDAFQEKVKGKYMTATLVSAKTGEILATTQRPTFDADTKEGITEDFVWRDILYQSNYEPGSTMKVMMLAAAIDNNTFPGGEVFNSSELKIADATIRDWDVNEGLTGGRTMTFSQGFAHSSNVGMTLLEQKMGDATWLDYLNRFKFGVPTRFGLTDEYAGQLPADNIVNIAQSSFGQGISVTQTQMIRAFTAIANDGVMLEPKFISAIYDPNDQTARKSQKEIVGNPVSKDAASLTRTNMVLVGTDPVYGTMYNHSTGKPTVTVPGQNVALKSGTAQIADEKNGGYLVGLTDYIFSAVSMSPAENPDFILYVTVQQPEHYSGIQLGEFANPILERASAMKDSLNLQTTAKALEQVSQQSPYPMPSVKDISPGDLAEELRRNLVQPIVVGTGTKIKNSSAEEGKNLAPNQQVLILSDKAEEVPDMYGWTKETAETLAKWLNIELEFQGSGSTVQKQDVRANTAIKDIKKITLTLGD

[5] = tested on: Streptococcus pneumoniae; experiment: Antimicrobial activity against penicillin-sensitive Streptococcus pneumoniae 1076 by CLSI method; type: functional
[6] = target: T2, Penicillin-binding protein 2x; experiment: Displacement of Biocillin FL from Streptococcus pneumoniae 1076 PBP2X
[7] = target: T3, Penicillin-binding protein 2B (Streptococcus pneumoniae serotype 4 (strain ATCC BAA-334 / TIGR4), UniProt P0A3M5); experiment: Displacement of Biocillin FL from Streptococcus pneumoniae 3243 PBP2B
T3 sequence (P0A3M5 whole entry): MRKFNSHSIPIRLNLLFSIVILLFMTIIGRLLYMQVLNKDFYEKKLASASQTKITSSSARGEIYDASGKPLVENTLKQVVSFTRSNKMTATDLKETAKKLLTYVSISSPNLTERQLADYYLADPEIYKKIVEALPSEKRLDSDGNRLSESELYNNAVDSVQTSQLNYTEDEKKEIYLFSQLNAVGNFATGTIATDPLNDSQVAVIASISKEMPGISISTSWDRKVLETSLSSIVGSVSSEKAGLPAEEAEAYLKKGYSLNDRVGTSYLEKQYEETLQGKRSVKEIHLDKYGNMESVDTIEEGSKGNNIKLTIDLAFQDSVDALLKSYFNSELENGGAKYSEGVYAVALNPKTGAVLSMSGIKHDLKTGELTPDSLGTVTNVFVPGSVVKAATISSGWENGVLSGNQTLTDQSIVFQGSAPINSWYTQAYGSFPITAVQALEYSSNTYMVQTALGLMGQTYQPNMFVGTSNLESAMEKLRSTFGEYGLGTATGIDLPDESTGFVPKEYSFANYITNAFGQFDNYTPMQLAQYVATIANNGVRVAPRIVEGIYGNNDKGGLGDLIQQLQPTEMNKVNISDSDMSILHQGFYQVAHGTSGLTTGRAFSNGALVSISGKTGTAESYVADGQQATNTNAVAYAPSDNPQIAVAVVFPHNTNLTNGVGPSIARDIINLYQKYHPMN

[8] = Displacement of Biocillin FL from Streptococcus pneumoniae 1077 PBP1B
[9] = Displacement of Biocillin FL from Streptococcus pneumoniae 3676 PBP3
[10] = target: T3, Penicillin-binding protein 2B; experiment: Displacement of Biocillin FL from Streptococcus pneumoniae 1077 PBP2B
[11] = Displacement of Biocillin FL from Streptococcus pneumoniae 3413 PBP3
[12] = Displacement of Biocillin FL from Streptococcus pneumoniae 3243 PBP3
[13] = target: T1, Penicillin-binding protein 1A; experiment: Displacement of Biocillin FL from Streptococcus pneumoniae 3676 PBP1A
[14] = tested on: Streptococcus pneumoniae; experiment: Antimicrobial activity against Streptococcus pneumoniae 1564 by CLSI method; type: functional
[15] = Displacement of Biocillin FL from Streptococcus pneumoniae 3665 PBP2A
[16] = target: T2, Penicillin-binding protein 2x; experiment: Displacement of Biocillin FL from Streptococcus pneumoniae 3009 PBP2X
[17] = tested on: Streptococcus pneumoniae; experiment: Antimicrobial activity against penicillin-resistant Streptococcus pneumoniae 24 by CLSI method; type: functional
[18] = tested on: Streptococcus pneumoniae; experiment: Antimicrobial activity against Streptococcus pneumoniae 2688 by CLSI method; type: functional
[19] = target: T3, Penicillin-binding protein 2B; experiment: Displacement of Biocillin FL from Streptococcus pneumoniae 3665 PBP2B
[20] = target: T1, Penicillin-binding protein 1A; experiment: Displacement of Biocillin FL from Streptococcus pneumoniae 3009 PBP1A
[21] = Displacement of Biocillin FL from Streptococcus pneumoniae 3676 PBP1B

Compound	IC50 [1] [µg/mL]	MIC [2] [µg/mL]	IC50 [3] [nM]	IC50 [4] [nM]	MIC [5] [µg/mL]	IC50 [6] [nM]	IC50 [7] [nM]	IC50 [8] [µg/mL]	IC50 [9] [µg/mL]	IC50 [10] [nM]	IC50 [11] [µg/mL]	IC50 [12] [µg/mL]	IC50 [13] [nM]	MIC [14] [µg/mL]	IC50 [15] [µg/mL]	IC50 [16] [nM]	MIC [17] [µg/mL]	MIC [18] [µg/mL]	IC50 [19] [nM]	IC50 [20] [nM]	further results
C[C@@H](O)[C@H]1C(=O)N2C(C(=O)O)=C([C@H]3CCCO3)S[C@H]12 [FAROPENEM]	0.012 (≈ 0.0421 µM)	0.125 (≈ 0.438 µM)	80.6	606	0.03 (≈ 0.105 µM)	221	45.6	0.005 (≈ 0.0175 µM)	0.009 (≈ 0.0315 µM)	28	0.003 (≈ 0.0105 µM)	0.004 (≈ 0.014 µM)	87.6	0.03 (≈ 0.105 µM)	0.015 (≈ 0.0526 µM)	214	1 (≈ 3.5 µM)	0.06 (≈ 0.21 µM)	165	35	IC50 [21]: 0.005 µg/mL (≈ 0.0175 µM)
C[C@@H](O)[C@H]1C(=O)N2C(C(=O)O)=C(SCCNC=N)C[C@H]12 [IMIPENEM ANHYDROUS]	0.077 (≈ 0.257 µM)	0.016 (≈ 0.0534 µM)	140	1980	0.008 (≈ 0.0267 µM)	197	220	0.106 (≈ 0.354 µM)	0.188 (≈ 0.628 µM)	154	0.195 (≈ 0.651 µM)	0.095 (≈ 0.317 µM)	838	0.125 (≈ 0.418 µM)	0.233 (≈ 0.778 µM)	334	0.25 (≈ 0.835 µM)	0.25 (≈ 0.835 µM)	2170	86.9	IC50 [21]: 0.182 µg/mL (≈ 0.608 µM)
CC1(C)S[C@@H]2[C@H](NC(=O)Cc3ccccc3)C(=O)N2[C@H]1C(=O)O [PENICILLIN G]	0.029 (≈ 0.0867 µM)	0.25 (≈ 0.748 µM)	5.98	123	0.03 (≈ 0.0897 µM)	29.9	182	0.005 (≈ 0.015 µM)	0.007 (≈ 0.0209 µM)	111	0.01 (≈ 0.0299 µM)	0.007 (≈ 0.0209 µM)	35.9	16 (≈ 47.8 µM)	0.016 (≈ 0.0478 µM)	32.9	4 (≈ 12 µM)	8 (≈ 23.9 µM)	467	26.9	IC50 [21]: 0.021 µg/mL (≈ 0.0628 µM)
CC1(C)S[C@@H]2[C@H](NC(=O)[C@H](N)c3ccc(O)cc3)C(=O)N2[C@H]1C(=O)O [AMOXICILLIN]	0.079 (≈ 0.216 µM)	0.03 (≈ 0.0821 µM)	134	257	0.016 (≈ 0.0438 µM)	101	79.4	0.006 (≈ 0.0164 µM)	0.019 (≈ 0.052 µM)	82.1	0.029 (≈ 0.0794 µM)	0.006 (≈ 0.0164 µM)	1150	4 (≈ 10.9 µM)	0.05 (≈ 0.137 µM)	21.9	2 (≈ 5.47 µM)	16 (≈ 43.8 µM)	602	246	IC50 [21]: 0.116 µg/mL (≈ 0.317 µM)
CO/N=C(\C(=O)N[C@@H]1C(=O)N2C(C(=O)O)=C(COC(N)=O)CS[C@H]12)c1ccco1 [CEFUROXIME]	0.016 (≈ 0.0377 µM)	0.125 (≈ 0.295 µM)	14.1	33	0.03 (≈ 0.0707 µM)	4.71	54.2	0.008 (≈ 0.0189 µM)	0.048 (≈ 0.113 µM)	2740	0.004 (≈ 0.00943 µM)	0.023 (≈ 0.0542 µM)	18.9	8 (≈ 18.9 µM)	0.009 (≈ 0.0212 µM)	0.0943	2 (≈ 4.71 µM)	4 (≈ 9.43 µM)	34700	23.6	IC50 [21]: 0.038 µg/mL (≈ 0.0895 µM)
